Assay results from ChEMBL document CHEMBL1136038, “Parallel solution- and solid-phase synthesis of spiropyrrolo-pyrroles as novel neurokinin receptor ligands” (Bioorg Med Chem Lett, 2002).

target: Substance-P receptor (Homo sapiens, UniProt P25103); assay: Affinity for human Tachykinin receptor 1 expressed in CHO cells; assay type: cell-based
Sequence (P25103 whole entry): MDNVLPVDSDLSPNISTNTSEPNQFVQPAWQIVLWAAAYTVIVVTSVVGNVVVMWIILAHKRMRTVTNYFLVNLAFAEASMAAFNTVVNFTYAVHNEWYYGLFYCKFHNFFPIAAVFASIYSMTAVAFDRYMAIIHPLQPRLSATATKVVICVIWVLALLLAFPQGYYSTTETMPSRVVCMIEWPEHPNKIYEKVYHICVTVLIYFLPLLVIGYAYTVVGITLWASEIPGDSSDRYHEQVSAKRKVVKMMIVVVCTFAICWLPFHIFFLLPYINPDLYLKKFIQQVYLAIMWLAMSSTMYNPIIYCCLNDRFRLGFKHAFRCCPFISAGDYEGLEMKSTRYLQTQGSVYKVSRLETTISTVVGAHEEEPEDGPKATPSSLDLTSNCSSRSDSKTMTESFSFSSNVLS

Row | Structure (SMILES) | Ki
1 | O=C1COc2ccc(S(=O)(=O)N3CCC4(CC3)C3C(=O)N(c5ccccc5)C(=O)C3CN4C(=O)c3cc(C(F)(F)F)cc(C(F)(F)F)c3)cc2N1 (configuration not stated) | 30.9 nM
2 | CC(C)(C)C(=O)N1CCC2(CC1)C1C(=O)N(c3ccccc3)C(=O)C1CN2C(=O)c1cc(C(F)(F)F)cc(C(F)(F)F)c1 (configuration not stated) | 302 nM
3 | O=C1C2CN(C(=O)c3sc4ccccc4c3Cl)C3(CCNCC3)C2C(=O)N1Cc1cc(C(F)(F)F)cc(C(F)(F)F)c1 (configuration not stated) | 501 nM
4 | CN1C(=O)C2CN(Cc3cccs3)C3(CCN(C(=O)c4cc(C(F)(F)F)cc(C(F)(F)F)c4)CC3)C2C1=O (configuration not stated) | 513 nM
5 | O=C(c1cc(C(F)(F)F)cc(C(F)(F)F)c1)N1CCC2(CC1)C1C(=O)N(c3ccccc3)C(=O)C1CN2C(=O)CN1CCOCC1 (configuration not stated) | 8.32 nM
6 | CS(=O)(=O)N1CCC2(CC1)C1C(=O)N(Cc3cc(C(F)(F)F)cc(C(F)(F)F)c3)C(=O)C1CN2C(=O)c1ccc2ccccc2c1 (configuration not stated) | 263 nM
7 | CN1C(=O)C2CN(S(=O)(=O)c3ccc4ccccc4c3)C3(CCN(C(=O)c4cc(C(F)(F)F)cc(C(F)(F)F)c4)CC3)C2C1=O (configuration not stated) | 38.9 nM
8 | COc1ccc(OC)c(S(=O)(=O)N2CCC3(CC2)C2C(=O)N(c4ccccc4)C(=O)C2CN3C(=O)c2cc(C(F)(F)F)cc(C(F)(F)F)c2)c1 (configuration not stated) | 30.2 nM
9 | Cc1noc(C)c1S(=O)(=O)N1CCC2(CC1)C1C(=O)N(c3ccccc3)C(=O)C1CN2C(=O)c1cc(C(F)(F)F)cc(C(F)(F)F)c1 (configuration not stated) | 75.9 nM
10 | CS(=O)(=O)N1CC2C(=O)N(c3ccccc3)C(=O)C2C12CCN(C(=O)c1cc(C(F)(F)F)cc(C(F)(F)F)c1)CC2 (configuration not stated) | 5.13 nM
11 | COc1ccccc1C(=O)N1CC2C(=O)N(C)C(=O)C2C12CCN(C(=O)c1cc(C(F)(F)F)cc(C(F)(F)F)c1)CC2 (configuration not stated) | 794 nM
12 | O=C1C2CN(C(=O)COCc3ccccc3)C3(CCNCC3)C2C(=O)N1Cc1cc(C(F)(F)F)cc(C(F)(F)F)c1 (configuration not stated) | 2290 nM
